In patent publication US10851065B2 (Eisai R&D Management Co., Ltd., priority 2015, dated 2020):

Tests used:
[1] = tested on: MCF7-WT cells (MCF7 ER-alpha wildtype); experiment: In vitro proliferation (viability) assay, CellTiter-Glo, MCF7-WT cells; type: cell-based; conditions: Homo sapiens; MCF7-WT cells, 6 days, CTG vs day 0; mean ± SD-type spread (n); read-out: GI50 WT
Method: (§1) MCF7 BUS cells (Coser, et al., (2003) PNAS 100(24): 13994-13999) were maintained in Dulbecco's Modified Eagle Medium supplemented with 10% FBS, 4 mM L-glutamine and 1× non-essential amino acids. Lenti-X 293T cells (Clontech, Cat #632180) were routinely cultured in Dulbecco's Modified Eagle Medium supplemented with 10% FBS.
(§2) The QuikChange II XL Site-Directed Mutagenesis Kit (Agilent Technologies, Cat #200523) was used to generate Y537S, Y537C, Y537N and D538G mutations within the ERα exon 8. Wild-type ESR1 cDNA (GeneCopoeia Inc., Cat #GC-A0322, accession no. NM 000125) was used as a template with the following mutagenesis primers (where the underlined nucleotides represent site mutations); Y537S: F-AAGAACGTGGTGCCCCTCTCTGACCTGCTGCTGGAGATG (SEQ ID NO: 1), R-CATCTCCAGCAGCAGGTCAGAGAGGGGCACCACGTTCTT (SEQ ID NO: 2); Y537N: F-AAGAACGTGGTGCCCCTCAATGACCTGCTGCTGGAGATG (SEQ ID NO: 3), R-CATCTCCAGCAGCAGGTCATTGAGGGGCACCACGTTCTT (SEQ ID NO: 4); Y537C: F-AAGAACGTGGTGCCCCTCTGTGACCTGCTGCTGGAGATG (SEQ ID NO: 5), R-CATCTCCAGCAGCAGGTCACAGAGGGGCACCACGTTCTT (SEQ ID NO: 6); D538G: F-AACGTGGTGCCCCTCTATGGCCTGCTGCTGGAGATGCTG (SEQ ID NO: 7), R-CAGCATCTCCAGCAGCAGGCCATAGAGGGGCACCACGTT (SEQ ID NO: 8). WT and mutant ESR1 cDNAs were cloned into the designation lentiviral vector pLenti6.3/V5-Dest (Invitrogen, Cat #V533-06). To make lentivirus, DNAs (WT and mutant ESR1) were co-transfected with packaging plasmids into Lenti-X 293T cells using TransIT (Mirus, Cat #MIR 2700). 48 h post-transfection, virus containing media was filtered and added to MCF7 cells in the presence of 8 µg/ml polybrene overnight. Two days following infection, cells were placed under selection with 10 μg/ml blasticidin for 2 weeks for stable expression.
(§3) MCF7-WT and -Y537S cells were seeded at 1500 cells/well in black-walled 96-well plates (assay plates, Costar, Cat #3904). In parallel, cells were also seeded in a separate 96-well plate (8 wells/cell line, control plate) for which a CTG (CellTiter-Glo® Luminescent Viability Assay, Promega, Cat #G7572) was measured the following day (day 0 reading). The day 0 reading was used for the GI50 calculation at the termination of the experiment. The day following seeding, compounds were added to assay plates. Briefly, a 1:4 serial dilution was prepared in DMSO at 200× final concentration for a total of 10 concentrations (9 dilutions containing compound and one is DMSO only). Serially diluted compounds were pipetted into medium to prepare a compound-medium mix at 10× final concentration. 10 μl of compound-medium mix was added to MCF7-WT and -Y537S cells at 3 wells/concentration (triplicate for each concentration). On day 3, media/compound was removed and replaced with fresh media/compound as described above. On day 6, CTG was measured and compared to day 0 readings from control plate to assess GI50.

[2] = tested on: MCF7-Y537S cells (MCF7 ER-alpha Y537S mutant); experiment: In vitro proliferation (viability) assay, CellTiter-Glo, MCF7-Y537S cells; type: cell-based; conditions: Homo sapiens; MCF7-Y537S cells, 6 days, CTG vs day 0; mean ± SD-type spread (n); read-out: GI50 MUT (Y537S)
Method: as §1, §2, §3

Row | SMILES | GI50 [1] | GI50 [2]
1 | O=C(/C=C/CNCCOc1ccc(/C(=C(\c2ccccc2)C2CCC2)c2ccc3[nH]ncc3c2)cc1)N1CCOCC1 [Compound 23, (E)-4-((2-(4-((E)-2-cyclobutyl-1-(1H-indazol-5-yl)-2-phenylvinyl)phenoxy)ethyl)amino)-1-morpholinobut-2-en-1-one] | 1.52 ± 1.05 nM | 24.2 ± 6.57 nM
2 | CN(C)C(=O)/C=C/CNCCOc1ccc(/C(=C(\c2ccccc2)C2CCC2)c2ccc3[nH]ncc3c2F)cc1 [Compound 24, (E)-4-((2-(4-((E)-2-cyclobutyl-1-(4-fluoro-1H-indazol-5-yl)-2-phenylvinyl)phenoxy)ethyl)amino)-N,N-dimethylbut-2-enamide] | 1.05 ± 0.3 nM | 19.9 ± 3.58 nM
3 | CC/C(=C(/c1ccc(OCCNC/C=C/C(=O)N(C)C)nc1)c1ccc2[nH]ncc2c1)c1ccccc1 [Compound 25, (E)-4-((2-((5-((Z)-1-(1H-indazol-5-yl)-2-phenylbut-1-en-1-yl)pyridin-2-yl)oxy)ethyl)amino)-N,N-dimethylbut-2-enamide] | 1.15 ± 0.3 nM | 19.6 ± 4.26 nM
4 | CC/C(=C(/c1ccc(OCCNC/C=C/C(=O)N(C)CCO)cc1)c1ccc2[nH]ncc2c1)c1ccccc1C [Compound 26, (E)-4-((2-(4-((E)-1-(1H-indazol-5-yl)-2-(o-tolyl)but-1-en-1-yl)phenoxy)ethyl)amino)-N-(2-hydroxyethyl)-N-methylbut-2-enamide] | 2.18 ± 0.87 nM | 32.5 ± 16.7 nM
5 | CC/C(=C(/c1ccc(OCCNC/C=C/C(=O)N(C)CCO)cc1)c1ccc2[nH]nc(F)c2c1)c1ccc(F)cc1Cl [Compound 28, (E)-4-((2-(4-((E)-2-(2-chloro-4-fluorophenyl)-1-(3-fluoro-1H-indazol-5-yl)but-1-en-1-yl)phenoxy)ethyl)amino)-N-(2-hydroxyethyl)-N-methylbut-2-enamide] | 3.16 nM | 69.7 nM
6 | CC/C(=C(/c1ccc(OCCNC/C=C/C(=O)N(C)C)cc1)c1ccc2[nH]ncc2c1)c1ccc(C(C)C)cc1 [Compound 29, (E)-4-((2-(4-((E)-1-(1H-indazol-5-yl)-2-(4-isopropylphenyl)but-1-en-1-yl)phenoxy)ethyl)amino)-N,N-dimethylbut-2-enamide] | 3.37 nM | 58.7 nM
7 | CN(C)C(=O)/C=C/CNCCOc1ccc(/C(=C(/CCCl)c2ccccc2)c2ccc3[nH]ncc3c2)cc1 [Compound 30, (E)-4-((2-(4-((E)-4-chloro-1-(1H-indazol-5-yl)-2-phenylbut-1-en-1-yl)phenoxy)ethyl)amino)-N,N-dimethylbut-2-enamide] | 2.74 ± 1.06 nM | 61.3 ± 9.98 nM
8 | CC/C(=C(/c1ccc(OCCNC/C=C/C(=O)N(C)C)cc1)c1ccc2[nH]ncc2c1)c1ccccc1OC [Compound 31] | 0.83 nM | 13.1 nM
9 | CC/C(=C(/c1ccc(OCCNC/C=C/C(=O)N(C)C)cc1)c1ccc2[nH]ncc2c1)c1ccccc1OC(F)F [Compound 32, (E)-4-((2-(4-((E)-2-(2-(difluoromethoxy)phenyl)-1-(1H-indazol-5-yl)but-1-en-1-yl)phenoxy)ethyl)amino)-N,N-dimethylbut-2-enamide] | 1.28 nM | 22.9 nM
10 | CC/C(=C(/c1ccc(OCCNC/C=C/C(=O)N(C)C)cc1)c1ccc2[nH]ncc2c1)c1ccccc1OC(F)(F)F [Compound 33, (E)-4-((2-(4-((E)-1-(1H-indazol-5-yl)-2-(2-(trifluoro-methoxy)phenyl)but-1-en-1-yl)phenoxy)ethyl)amino)-N,N-dimethylbut-2-enamide] | 2.5 nM | 29.3 nM
11 | CC/C(=C(/c1ccc(OCCNC/C=C/C(=O)N(C)C)cc1)c1ccc2[nH]ncc2c1)c1ccccc1C(C)C [Compound 34, (E)-4-((2-(4-((E)-1-(1H-indazol-5-yl)-2-(2-isopropylphenyl)but-1-en-1-yl)phenoxy)ethyl)amino)-N,N-dimethylbut-2-enamide] | 10.5 nM | 93.6 nM
12 | CC/C(=C(/c1ccc(OCCNC/C=C/C(=O)N(C)C)cc1)c1ccc2[nH]ncc2c1)c1ccccc1CC [Compound 35, (E)-4-((2-(4-((E)-2-(2-ethylphenyl)-1-(1H-indazol-5-yl)but-1-en-1-yl)phenoxy)ethyl)amino)-N,N-dimethylbut-2-enamide] | 6.22 ± 0.58 nM | 47.8 ± 15.6 nM
13 | CC/C(=C(/c1ccc(OCCNC/C=C/C(=O)N(C)C)cc1)c1ccc2[nH]ncc2c1)c1ccccc1C [Compound 36, (E)-4-((2-(4-((E)-1-(1H-indazol-5-yl)-2-(o-tolyl)but-1-en-1-yl)phenoxy)ethyl)amino)-N,N-dimethylbut-2-enamide] | 4.96 ± 3.1 nM | 25 ± 21.9 nM
14 | CC/C(=C(/c1cnc(OCCNC/C=C/C(=O)N(C)C)nc1)c1ccc2[nH]ncc2c1)c1ccccc1 [Compound 38, (E)-4-((2-((5-((Z)-1-(1H-indazol-5-yl)-2-phenylbut-1-en-1-yl)pyrimidin-2-yl)oxy)ethyl)amino)-N,N-dimethylbut-2-enamide] | 8.23 ± 5.32 nM | 159 ± 128 nM
15 | O=C(/C=C/CNCCOc1ccc(/C(=C(\c2ccccc2)C2CCC2)c2ccc3[nH]ncc3c2)cc1)N1CCC1 [Compound 39, (E)-1-(azetidin-1-yl)-4-((2-(4-((E)-2-cyclobutyl-1-(1H-indazol-5-yl)-2-phenylvinyl)phenoxy)ethyl)amino)but-2-en-1-one] | 1.79 ± 0.47 nM | 31.8 ± 4.85 nM
16 | O=C(/C=C/CNCCOc1ccc(/C(=C(\c2ccccc2)C2CCC2)c2ccc3[nH]nc(F)c3c2)cc1)N1CCC1 [Compound 40, (E)-1-(azetidin-1-yl)-4-((2-(4-((E)-2-cyclobutyl-1-(3-fluoro-1H-indazol-5-yl)-2-phenylvinyl)phenoxy)ethyl)amino)but-2-en-1-one] | 7.52 ± 4.52 nM | 94.5 ± 20.8 nM
17 | CN(CCO)C(=O)/C=C/CNCCOc1ccc(/C(=C(\c2ccccc2)C2CCC2)c2ccc3[nH]ncc3c2)cc1 [Compound 41, (E)-4-((2-(4-((E)-2-cyclobutyl-1-(1H-indazol-5-yl)-2-phenylvinyl)phenoxy)ethyl)amino)-N-(2-hydroxyethyl)-N-methylbut-2-enamide] | 3.84 nM | 66.3 nM
18 | Cc1ccccc1/C(=C(\c1ccc(OCCNC/C=C/C(=O)N2CCC2)cc1)c1ccc2[nH]ncc2c1)C1CCC1 [Compound 42, (E)-1-(azetidin-1-yl)-4-((2-(4-((E)-2-cyclobutyl-1-(1H-indazol-5-yl)-2-(o-tolyl)vinyl)phenoxy)ethyl)amino)but-2-en-1-one] | 2.68 ± 1.66 nM | 69.4 ± 29.1 nM
19 | CC/C(=C(/c1ccc(OCCNC/C=C/C(=O)N(C)C)cc1)c1ccc2[nH]nc(F)c2c1)c1ccccc1F [Compound 43, (E)-4-((2-(4-((E)-1-(3-fluoro-1H-indazol-5-yl)-2-(2-fluorophenyl)but-1-en-1-yl)phenoxy)ethyl)amino)-N,N-dimethylbut-2-enamide] | 1.94 nM | 47.3 nM
20 | CC/C(=C(/c1ccc(OCCNC/C=C/C(=O)N(C)C)cc1)c1ccc2[nH]nc(F)c2c1)c1cccc(F)c1 [Compound 44, (E)-4-((2-(4-((E)-1-(3-fluoro-1H-indazol-5-yl)-2-(3-fluorophenyl)but-1-en-1-yl)phenoxy)ethyl)amino)-N,N-dimethylbut-2-enamide] | 4.91 nM | 180 nM
21 | CC/C(=C(/c1ccc(OCCNC/C=C/C(=O)N(C)C)cc1)c1ccc2[nH]nc(F)c2c1)c1ccc(F)cc1 [Compound 45] | 4.14 nM | 104 nM
